The values that follow come from patent publication US11098006B2, “Lipids and complexes for the delivery of biologically-active material to cells” (RYBOQUIN COMPANY LTD, priority 2016, dated 2021).

The conditions of series [1]: cited from earlier work.
The next series concerns many cell types. The conditions noted are these: cited from earlier work.
Series [2] deals with NIH3T3 murine fibroblasts. The series can be described thus: In vitro transfection with LPD formulations, luciferase reporter assay. In kind it is cell-based. The conditions noted are these: NIH3T3 cells; LPD with peptide ME27 and plasmid pCI-Luc; FIG. 1. How it is done: (§1) Cells tested included 1HAEo-human airway epithelial cells, NIH3T3 murine fibroblasts, and Neuro2A murine neuroblastoma cells. Cells were seeded into 96-well plates at approximately 2×10^4 cells per well, then incubated overnight at 37° C. in complete growth medium. The following day, lipopolyplex (LPD) formulations were prepared essentially as described previously (Hart et al., 1998), by mixing the components in the following order: 50 μl of lipid (L) at 80 μg/ml in OptiMEM, 70 μl of peptide (P) at 110 μg/ml in OptiMEM and 50 μl of plasmid pCI-Luc (D) at 40 μg/ml in OptiMEM corresponding to a weight ratio of 2:4:1, respectively. […] The cells were incubated with the complexes for 4 h at 37° C. before replacing with fresh media for 24 h, after which reporter gene expression was analyzed by luciferase assay (Promega, Madison, Wis., USA). […]
(§2) Cells were washed once with PBS before the addition of 20 μl of 1× Reporter Lysis Buffer (Promega, Madison, Wis., USA) to the cells for 20 min at 4° C. before freezing at −80° C. for at least 30 min, followed by thawing at room temperature. Then the luciferase activity was measured during 10 seconds using the Luciferase Assay System (Promega, Madison, Wis., USA) and an Optima Fluostar plate reader (BMG Labtech). […] In vitro luciferase activity was expressed as Relative Light Units (RLU) per milligram of protein (RLU/mg).

Series [3] in a line: Transmission electron microscope imaging of LPD particles. The conditions noted are these: peptide ME27; weight ratio 0.75:4:1 (L:P:D); FIG. 5 and FIG. 6. In kind it is physicochemical. An excerpt:
Transmission Electon Microscope images of LPD particles comprising FMM30 with peptide ME27 at a weight ratio of 0.75:4:1 (L:P:D) is shown in FIG. 5 (FMM30-PD-0.75) and lipids FMM30/DOPE at the same weight ratio is shown in FIG. 6 (FMM30/DOPE-PD 0.75).

Series [4] is described as follows: Size of LPD nanoparticles by dynamic light scattering. In kind it is physicochemical. To be noted: peptide ME27; weight ratio 0.75:4:1 (L:P:D); FIG. 7. The method, then:
The size of LPD nanoparticles containing peptides ME27 with lipids FMM30 or FMM30/DPE were determined at different weight ratios of liposome to DNA (w/w) by dynamic light scattering using a NanoZS Zetasizer (Malvern).

In series [5] the test system is 1HAEo- human airway epithelial cells. The series can be described thus: In vitro transfection with LPD formulations, luciferase reporter assay. The conditions noted are these: 1HAEo- cells; LPD with peptide ME27 and plasmid pCI-Luc; FIG. 2. In kind it is cell-based. How it is done: as §1, §2
On the technique in general: Reporter assays use an easily measured gene product as a stand-in for the process of interest.

A further series deals with COS.7 cells. To be noted: cited from earlier work.

The structures appear in SMILES notation.

With `CCCCCCCC/C=C\CCCCCCCCOCC(C[N+](C)(C)C)OCCCCCCCC/C=C\CCCCCCCC.[Cl-]` (stereo not drawn) [DOTMA 1], in series [1], the “transfection activities in vivo” value is listed as “exhibited higher transfection activities”. Further, the “levels of transfection in vitro” value in the series on many cell types is listed as “comparable levels of transfection”.

On to `CCCCCCCC/C=C\CCCCCCCC(=O)OCC(C[N+](C)(C)C)OC(=O)CCCCCCC/C=C\CCCCCCCC` (stereo not drawn) [DOTAP 4], for which the “levels of transfection in vitro” value with many cell types is “comparable levels of transfection”.

For the molecule `CCCCCCCC/C=C\CCCCCCCCOCC(C[N+](C)(C)CCOCCOCCOCCOC(=O)CCCCCCC/C=C\CCCCCCCC)OCCCCCCCC/C=C\CCCCCCCC` (stereo not drawn) [FMM30, (9Z)—N-(2,3-bis((9Z)-octadecenyloxy)propyl)-N,N-dimethyl-13-oxo-3,6,9,12-tetraoxatriacont-21-en-1-aminium bromide], the transfection levels entry in series [2] and in series [5] was “far higher than the bi-chain lipid CH300” in each case. For the same molecule, in series [3], the “particle size and shape in TEM images” value was “quite similar sizes with a combination of shapes including rods and spheres”. Besides, the “size of LPD nanoparticles” value in series [4] is on record as “approximately 80 nm”.

With `CCCCCCCCCCCCCCOCC(C[N+](C)(C)CCO)OCCCCCCCCCCCCCC.[Br-]` (stereo not drawn) [DMRIE 7], the “transfection activity of hydroxyalkyl cytofectins” value in the series on COS.7 cells (compared with DOTMA 1) was “one of the more efficient lipids”.

Consider `CCCCCCCC/C=C\CCCCCCCCOCC(C[N+](C)(C)CCO)OCCCCCCCC/C=C\CCCCCCCC.[Br-]` (stereo not drawn) [DORIE 6], for which the “transfection efficacies in COS.7 cells” value with COS.7 cells (co-formulation with helper lipid DOPE 2, compared to lipids with hydroxypropyl-hydroxypentyl groups) was “higher transfection efficacies”.
